This test has as its target T1, P2X7 (UniProt Q99572).
T1 sequence (Q99572 1-595): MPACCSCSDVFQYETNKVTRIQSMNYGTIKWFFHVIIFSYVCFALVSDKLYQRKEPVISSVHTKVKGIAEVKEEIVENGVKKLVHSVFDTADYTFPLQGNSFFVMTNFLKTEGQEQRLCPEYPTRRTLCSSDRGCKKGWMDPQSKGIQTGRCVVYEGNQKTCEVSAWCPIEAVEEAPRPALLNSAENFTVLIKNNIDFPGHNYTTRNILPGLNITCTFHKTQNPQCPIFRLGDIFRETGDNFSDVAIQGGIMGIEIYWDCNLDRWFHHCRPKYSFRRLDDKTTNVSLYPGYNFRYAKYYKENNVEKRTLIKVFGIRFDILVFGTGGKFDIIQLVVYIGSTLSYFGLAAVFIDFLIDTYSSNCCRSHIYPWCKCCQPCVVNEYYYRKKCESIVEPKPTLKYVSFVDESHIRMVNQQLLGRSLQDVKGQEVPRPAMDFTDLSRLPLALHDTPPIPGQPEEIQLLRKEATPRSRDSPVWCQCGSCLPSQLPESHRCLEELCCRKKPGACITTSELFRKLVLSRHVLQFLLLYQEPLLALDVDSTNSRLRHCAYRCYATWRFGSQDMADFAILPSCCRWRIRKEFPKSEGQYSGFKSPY
Briefly: pIC50 values for P2X7 (Table 1). It counts as cell-based. Here is the method: Intracellular Calcium Flux (FLIPR) Assay
Stock solutions of compounds were prepared from powders as a 10 mM DMSO stock solution. These solutions were stored at RT during the two week period of these experiments to prevent freeze-thaw of the DMSO stocks. The DMSO stocks were added to the appropriate assay buffer at a concentration of 10 μM, and then diluted serially to the final concentrations that were tested. […] The aqueous solutions of compounds as well as ATP (Sigma A7699) and BzATP (Sigma B6396) were prepared fresh for each day of experiment.
1321N1 cells stably expressing the full length human P2X7 gene (1321N1-hP2X7) and HEK293 cells stably expressing the full length rat P2X7 gene (HEK293-rP2X7) were obtained from the Roche Cell Culture Facility. 1321N1-hP2X7 cells were grown in Dulbecco's Modified Eagle's Medium (DMEM) high glucose supplemented with 10% FBS and 250 μg/mL G418. HEK293-rP2X7 cells were grown in DMEM/F-12 supplemented with 10% FBS, 1 mM CaCl2, 2 mM MgCl2, 2 mM L-Glutamine and 500 μg/ml G418. Cells were split such that they never became >70% confluent.
On the day prior to the experiment, 1321N1-hP2X7 or HEK293-rP2X7 cells were released into suspension with calcium-free PBS+Versene and washed by centrifugation with calcium-free PBS to remove the Versene. Cells were resuspended in growth medium at a density of 2.5×10^5 cells/mL and seeded into black walled, clear bottom 96 well plates (50,000 cells/well) approximately 18 hr prior to intracellular calcium flux experiments.
On the day of the experiment, plates were washed with FLIPR buffer (calcium- and magnesium-free Hank's Balanced Salt Solution (HBSS) supplemented with 10 mM Hepes, 2.5 mM probenecid and 2 mM calcium chloride) using a BIO-TEK 96 channel plate washer and incubated with […] fluo-3 dye at 37° C. for one hr. The dye was then removed by plate washing and the cells were allowed to equilibrate for 20 min at room temperature with antagonist or vehicle (FLIPR buffer). Agonist (100 μM BzATP final concentration for hP2X7; 5 μM BzATP final concentration or rP2X7) was added online with the FLIPR and fluorescence measurements made at 1 sec intervals for 60 sec followed by 3 sec intervals for a further 4 min (5 min total). A final addition of 5 μM ionomycin was made and the maximal BzATP-evoked fluorescence normalized to the maximal ionomycin-evoked fluorescence.
Consider `O=C1C=CN(C(=O)Cc2cc(OCCO)c(F)cc2Br)[C@H](c2ccc(F)cc2)C1` [Compound 46, (S)-1-{2-[2-Bromo-4-fluoro-5-(2-hydroxy-ethoxy)-phenyl]-acetyl}-2-(4-fluoro-phenyl)-2,3-dihydro-1H-pyridin-4-one], for which the “pIC50 P2X7” value came out at 7.31. To `COc1cc(F)c(CC(=O)N2C=CC(=O)C[C@H]2c2ccc(F)cc2)cc1OC` [Compound 47, (S)-1-[2-(2-Fluoro-4,5-dimethoxy-phenyl)-acetyl]-2-(4-fluoro-phenyl)-2,3-dihydro-1H-pyridin-4-one] belongs 6.4; to `COc1cc(F)c(CC(=O)N2C=CC(=O)C[C@H]2c2cccc(F)c2)cc1OC` [Compound 48, (S)-1-[2-(2-Fluoro-4,5-dimethoxy-phenyl)-acetyl]-2-(3-fluoro-phenyl)-2,3-dihydro-1H-pyridin-4-one], 6.55. As to `Cc1cc(F)c(OCCO)cc1CC(=O)N1C=CC(=O)C[C@H]1c1ccc(F)cc1` [Compound 49, (S)-1-{2-[4-Fluoro-5-(2-hydroxy-ethoxy)-2-methyl-phenyl]-acetyl}-2-(4-fluoro-phenyl)-2,3-dihydro-1H-pyridin-4-one], the “pIC50 P2X7” value was determined as 7.12.

For `O=C1C=CN(C(=O)Cc2cc(OCCO)c(F)cc2Br)[C@H](c2cccc(F)c2)C1` [Compound 50, (S)-1-{2-[2-Bromo-4-fluoro-5-(2-hydroxy-ethoxy)-phenyl]-acetyl}-2-(3-fluoro-phenyl)-2,3-dihydro-1H-pyridin-4-one], the “pIC50 P2X7” value worked out at 7.65. `COc1cc(Cl)c(CC(=O)N2C=CC(=O)C[C@H]2c2ccc(F)cc2)cc1OC` [Compound 51, (S)-1-[2-(2-Chloro-4,5-dimethoxy-phenyl)-acetyl]-2-(4-fluoro-phenyl)-2,3-dihydro-1H-pyridin-4-one]: the “pIC50 P2X7” value was 7.77.

The values above are taken from patent US8153808B2, “Dihydropyridone amides as P2X7 modulators” (Roche Palo Alto LLC, priority 2008, dated 2012).
